Values after ≈ are worked out from the molar mass of the structure shown.
Key:
Type in all cases: functional
Cutibacterium acnes = assay: Antibacterial activity against Propionibacterium acnes by two-fold dilution method
Pseudomonas aeruginosa = assay: Antibacterial activity against Pseudomonas aeruginosa by two-fold dilution method
Staphylococcus aureus = assay: Antibacterial activity against Staphylococcus aureus by two-fold dilution method; conditions: for MIC: Staphylococcus aureus
Candida albicans = assay: […] activity against Candida albicans by two-fold dilution method; conditions: for MIC: Candida albicans
Escherichia coli = assay: Antibacterial activity against Escherichia coli by two-fold dilution method

MIC (Cutibacterium acnes) | MIC (Pseudomonas aeruginosa) | MIC (Staphylococcus aureus) | MIC (Candida albicans) | MIC (Escherichia coli) | Compound | -logMIC (Staphylococcus aureus) | -logMIC (Candida albicans)
0.354 mg/L (≈ 0.586 µM) | 0.926 mg/L (≈ 1.53 µM) | 0.178 mg/L (≈ 0.295 µM) | 7.9 mg/L (≈ 13.1 µM) | 1.14 mg/L (≈ 1.88 µM) | COC(=O)CCC[C@@H]1[C@H]2CCCN3CCC[C@@H](CN1C(=O)c1cc4ccc(Cl)cc4n1Cc1ccccc1C(C)(C)C)[C@@H]23 | 0.75 | -0.898
0.093 mg/L (≈ 0.142 µM) | 0.975 mg/L (≈ 1.49 µM) | 0.117 mg/L (≈ 0.179 µM) | 9.8 mg/L (≈ 15 µM) | 0.894 mg/L (≈ 1.37 µM) | COC(=O)CCC[C@@H]1[C@H]2CCCN3CCC[C@@H](CN1C(=O)c1cc4ccc(Cl)cc4n1Cc1cccc(OCc4ccccc4)c1)[C@@H]23 | 0.932 | -0.991

Source: ChEMBL document CHEMBL5579805, “Synthesis, antibacterial activity, and 3D-QASR studies of matrine-indole derivatives as potential antibiotics” (2024)
